How the values were obtained:
[1] = molecular target: Protein kinase C beta type (Homo sapiens, UniProt P05771); assay: Inhibition of recombinant human PKCbeta1 assessed as [33P]-ATP incorporation into tridecapeptide substrate after 60 mins by scintillation proximity assay
[2] = molecular target: Protein kinase C alpha type (Homo sapiens, UniProt P17252); assay: Inhibition of recombinant human PKCalpha assessed as [33P]-ATP incorporation into tridecapeptide substrate after 60 mins by scintillation proximity assay
[3] = molecular target: T1, Protein kinase C epsilon type (Homo sapiens, UniProt Q02156); assay: Inhibition of recombinant human PKCepsilon assessed as [33P]-ATP incorporation into tridecapeptide substrate after 60 mins by scintillation proximity assay
T1 sequence (Q02156 whole entry): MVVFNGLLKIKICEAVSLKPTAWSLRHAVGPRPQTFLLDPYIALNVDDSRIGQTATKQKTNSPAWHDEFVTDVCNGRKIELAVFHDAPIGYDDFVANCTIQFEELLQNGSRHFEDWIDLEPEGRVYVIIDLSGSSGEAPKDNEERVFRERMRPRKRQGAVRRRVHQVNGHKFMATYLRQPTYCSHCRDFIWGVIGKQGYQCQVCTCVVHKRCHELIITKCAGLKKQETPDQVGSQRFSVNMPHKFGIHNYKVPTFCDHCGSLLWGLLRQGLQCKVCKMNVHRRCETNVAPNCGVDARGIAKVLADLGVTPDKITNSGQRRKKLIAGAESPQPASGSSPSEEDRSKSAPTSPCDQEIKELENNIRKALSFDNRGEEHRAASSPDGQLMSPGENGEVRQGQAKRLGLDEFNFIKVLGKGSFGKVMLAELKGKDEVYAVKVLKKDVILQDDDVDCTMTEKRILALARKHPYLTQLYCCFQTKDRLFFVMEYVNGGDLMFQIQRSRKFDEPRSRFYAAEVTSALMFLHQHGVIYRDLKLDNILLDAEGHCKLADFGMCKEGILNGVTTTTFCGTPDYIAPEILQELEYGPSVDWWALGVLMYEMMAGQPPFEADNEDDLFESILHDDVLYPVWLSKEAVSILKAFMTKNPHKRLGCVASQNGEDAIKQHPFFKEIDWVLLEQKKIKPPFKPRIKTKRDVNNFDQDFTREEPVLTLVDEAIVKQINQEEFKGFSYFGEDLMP

[4] = molecular target: Protein kinase C eta type (Homo sapiens, UniProt P24723); assay: Inhibition of recombinant human PKCeta assessed as [33P]-ATP incorporation into tridecapeptide substrate after 60 mins by scintillation proximity assay
Chain of Protein kinase C eta type (P24723 whole entry): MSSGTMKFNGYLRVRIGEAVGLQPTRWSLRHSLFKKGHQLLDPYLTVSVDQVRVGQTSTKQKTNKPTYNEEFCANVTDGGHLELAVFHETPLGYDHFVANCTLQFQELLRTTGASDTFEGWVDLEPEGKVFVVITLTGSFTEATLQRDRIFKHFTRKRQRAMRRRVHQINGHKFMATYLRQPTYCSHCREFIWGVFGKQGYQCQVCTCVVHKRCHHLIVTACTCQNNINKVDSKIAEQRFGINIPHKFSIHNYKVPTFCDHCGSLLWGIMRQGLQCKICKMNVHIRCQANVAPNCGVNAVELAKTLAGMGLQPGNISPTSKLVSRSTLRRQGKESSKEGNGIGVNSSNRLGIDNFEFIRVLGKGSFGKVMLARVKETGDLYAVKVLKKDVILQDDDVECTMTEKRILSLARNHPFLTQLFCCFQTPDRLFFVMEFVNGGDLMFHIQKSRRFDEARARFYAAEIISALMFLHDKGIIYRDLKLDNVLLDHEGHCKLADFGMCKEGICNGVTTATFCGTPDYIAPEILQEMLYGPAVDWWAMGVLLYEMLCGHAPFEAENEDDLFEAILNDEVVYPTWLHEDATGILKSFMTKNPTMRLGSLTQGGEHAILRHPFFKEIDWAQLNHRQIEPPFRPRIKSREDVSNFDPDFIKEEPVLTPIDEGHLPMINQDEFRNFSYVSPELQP

[5] = molecular target: Protein kinase C theta type (Homo sapiens, UniProt Q04759); assay: Inhibition of recombinant human PKCtheta assessed as [33P]-ATP incorporation into tridecapeptide substrate after 60 mins by scintillation proximity assay
Chain of Protein kinase C theta type (Q04759 whole entry): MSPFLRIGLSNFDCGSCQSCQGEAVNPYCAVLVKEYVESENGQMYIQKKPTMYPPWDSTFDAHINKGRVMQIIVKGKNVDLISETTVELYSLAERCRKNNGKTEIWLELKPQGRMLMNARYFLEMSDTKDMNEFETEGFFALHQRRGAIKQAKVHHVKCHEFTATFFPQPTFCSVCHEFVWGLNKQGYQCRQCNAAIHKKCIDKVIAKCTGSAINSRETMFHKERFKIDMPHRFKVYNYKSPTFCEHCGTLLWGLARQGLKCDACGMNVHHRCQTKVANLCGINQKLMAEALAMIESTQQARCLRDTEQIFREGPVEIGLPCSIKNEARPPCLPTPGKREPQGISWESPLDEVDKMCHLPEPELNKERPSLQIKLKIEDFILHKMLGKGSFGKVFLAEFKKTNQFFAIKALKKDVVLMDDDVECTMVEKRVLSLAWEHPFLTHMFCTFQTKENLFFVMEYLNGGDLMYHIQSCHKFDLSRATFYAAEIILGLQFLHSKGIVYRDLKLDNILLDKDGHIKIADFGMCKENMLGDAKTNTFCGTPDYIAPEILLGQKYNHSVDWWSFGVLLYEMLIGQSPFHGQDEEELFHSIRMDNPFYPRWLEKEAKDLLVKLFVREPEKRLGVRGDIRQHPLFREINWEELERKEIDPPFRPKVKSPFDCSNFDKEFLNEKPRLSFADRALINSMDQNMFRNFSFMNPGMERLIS

[6] = molecular target: Protein kinase C delta type (Homo sapiens, UniProt Q05655); assay: Inhibition of recombinant human PKCdelta assessed as [33P]-ATP incorporation into tridecapeptide substrate after 60 mins by scintillation proximity assay
Chain of Protein kinase C delta type (Q05655 whole entry): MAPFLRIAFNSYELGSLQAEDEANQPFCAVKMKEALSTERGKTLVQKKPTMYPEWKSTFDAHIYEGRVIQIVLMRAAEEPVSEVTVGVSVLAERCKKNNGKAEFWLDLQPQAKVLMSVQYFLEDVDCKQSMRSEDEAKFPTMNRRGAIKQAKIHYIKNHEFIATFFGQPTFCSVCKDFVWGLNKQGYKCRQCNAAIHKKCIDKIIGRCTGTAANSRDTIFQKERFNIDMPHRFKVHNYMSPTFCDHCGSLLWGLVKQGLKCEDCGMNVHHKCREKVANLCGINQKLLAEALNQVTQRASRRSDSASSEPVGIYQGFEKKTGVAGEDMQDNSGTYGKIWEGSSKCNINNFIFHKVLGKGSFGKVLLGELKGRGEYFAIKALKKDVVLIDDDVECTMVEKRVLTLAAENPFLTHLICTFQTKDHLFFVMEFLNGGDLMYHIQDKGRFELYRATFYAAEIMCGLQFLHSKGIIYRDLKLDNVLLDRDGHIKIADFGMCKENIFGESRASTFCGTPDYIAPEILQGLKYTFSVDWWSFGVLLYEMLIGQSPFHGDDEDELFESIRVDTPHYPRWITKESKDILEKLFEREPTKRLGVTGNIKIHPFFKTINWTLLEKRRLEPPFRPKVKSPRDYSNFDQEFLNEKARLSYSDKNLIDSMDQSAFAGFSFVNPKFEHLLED

[7] = Inhibition of antiCD3 and antiCD28 antibody-stimulated rat blood T lymphocyte proliferation incubated 1 hr before antibody challenge measured after 52 hrs by radioactive [3H]-thymidine incorporation assay; assay type: tissue-based; details: T-cell
[8] = Intrinsic aqueous solubility of the compound; assay type: physicochemical; details: read-out: Intrinsic_solubility
[9] = Lipophilicity, log P of the compound; assay type: physicochemical; details: octanol/water
[10] = Octanol-water distribution coefficient, log D of the compound at pH 6.8; assay type: physicochemical
[11] = Plasma protein binding in human by rapid equilibrium dialysis method; assay type: ADME, cell-free; details: read-out: PPB (converted)
[12] = Plasma protein binding in rat by rapid equilibrium dialysis method; assay type: ADME, cell-free; details: read-out: PPB (converted)
[13] = AUC (infinity) in Lewis rat at 5 mg/kg, iv; assay type: ADME, organism-based; set-up: dose 5 mg/kg, route intravenous, time infinity; details: plasma
[14] = Elimination half life in Lewis rat at 5 mg/kg, iv; assay type: ADME, organism-based; set-up: dose 5 mg/kg, route intravenous; details: in vivo, read-out: beta t1/2 (converted)
[15] = Clearance in Lewis rat at 5 mg/kg, iv; assay type: ADME, organism-based; set-up: dose 5 mg/kg, route intravenous; details: in vivo
[16] = Volume of distribution at steady state in Lewis rat at 5 mg/kg, iv; assay type: ADME, organism-based; set-up: dose 5 mg/kg, route intravenous; details: in vivo, read-out: Vdss
[17] = AUC (infinity) in Lewis rat at 10 mg/kg, po; assay type: ADME, organism-based; set-up: time infinity, dose 10 mg/kg, route oral; details: plasma
[18] = Tmax in Lewis rat at 10 mg/kg, po; assay type: ADME, organism-based; set-up: dose 10 mg/kg, route oral; details: in vivo
[19] = Cmax in Lewis rat at 10 mg/kg, po; assay type: ADME, organism-based; set-up: dose 10 mg/kg, route oral; details: in vivo
[20] = Oral bioavailability in Lewis rat at 10 mg/kg; assay type: ADME, organism-based; details: in vivo
Mus musculus [21] = species: Mus musculus; assay: animal or person; assay type: functional; details: BALB/c, route oral
Mus musculus [22] = species: Mus musculus; assay: animal or person; assay type: functional; details: BALB/c, route oral; remark: listed apart in the source
[23] = Dissociation constant, pKa of the compound; assay type: physicochemical

Chain of Protein kinase C beta type (P05771 whole entry): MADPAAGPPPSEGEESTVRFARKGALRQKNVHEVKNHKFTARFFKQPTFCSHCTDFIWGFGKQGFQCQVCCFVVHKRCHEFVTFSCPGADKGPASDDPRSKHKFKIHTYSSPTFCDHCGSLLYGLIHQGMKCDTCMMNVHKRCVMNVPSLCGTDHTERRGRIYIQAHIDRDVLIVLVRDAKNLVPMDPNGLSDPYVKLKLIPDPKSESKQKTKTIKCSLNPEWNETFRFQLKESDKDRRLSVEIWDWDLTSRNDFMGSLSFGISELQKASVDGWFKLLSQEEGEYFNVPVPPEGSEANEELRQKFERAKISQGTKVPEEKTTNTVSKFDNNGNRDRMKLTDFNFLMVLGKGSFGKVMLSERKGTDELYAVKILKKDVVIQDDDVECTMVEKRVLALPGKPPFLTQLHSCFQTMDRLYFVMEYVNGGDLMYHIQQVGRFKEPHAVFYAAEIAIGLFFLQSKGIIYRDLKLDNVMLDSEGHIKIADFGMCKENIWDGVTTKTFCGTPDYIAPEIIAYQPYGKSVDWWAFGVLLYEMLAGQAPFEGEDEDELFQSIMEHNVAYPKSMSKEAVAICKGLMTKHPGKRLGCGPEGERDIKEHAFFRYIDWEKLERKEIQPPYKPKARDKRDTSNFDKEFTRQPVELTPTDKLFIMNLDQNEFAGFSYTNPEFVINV

SMILES | IC50 [1] | IC50 [2] | IC50 [3] | IC50 [4] | IC50 [5] | IC50 [6] | further results
NCCNc1nc(-c2ccncc2)cc2cnccc12 | 859 nM | – | – | – | – | – | –
c1cc(-c2cc3cnccc3c(N3CCNCC3)n2)ccn1 | 823 nM | > 1000 nM | 8 nM | 6 nM | 109 nM | – | –
NCCNc1nc(-c2ccncc2)cc2ccccc12 | > 1000 nM | > 1000 nM | 877 nM | 743 nM | > 1000 nM | > 1000 nM | –
NCCNc1nc(-c2ccncc2)cc2ncccc12 | > 1000 nM | > 1000 nM | 929 nM | 401 nM | > 1000 nM | > 1000 nM | –
NCCNc1nc(-c2ccncc2)cc2ccncc12 | > 1000 nM | > 1000 nM | > 1000 nM | > 1000 nM | > 1000 nM | > 1000 nM | –
NCCNc1cc(-c2ccncc2)cc2cnccc12 | > 1000 nM | > 1000 nM | 44 nM | 54 nM | 355 nM | 157 nM | IC50 [7]: 1040 nM
NCCNc1nc(-c2ccncc2)nc2cnccc12 | > 1000 nM | > 1000 nM | 38 nM | 27 nM | > 1000 nM | 102 nM | –
NCCOc1nc(-c2ccncc2)cc2cnccc12 | > 1000 nM | > 1000 nM | 120 nM | 82 nM | 948 nM | 703 nM | –
C[C@H](N)CNc1nc(-c2ccncc2)cc2cnccc12 | 378 nM | 829 nM | 5 nM | 2 nM | 55 nM | 8 nM | IC50 [7]: 138 nM; solubility [8]: > 400 µg/mL; logP [9]: 2.2; logD [10]: -0.3; fraction unbound [11]: 0.42; fraction unbound [12]: 0.37; AUC(0-inf) [13]: 1770 ng·h/mL; half-life [14]: 8.1 h; clearance [15]: 49 mL/min/kg; Vd [16]: 14 L/kg; AUC(0-inf) [17]: 712 ng·h/mL; Tmax [18]: 2 h; Cmax [19]: 53 ng/mL; bioavailability [20]: 20%; inhibition in vivo at 50 mg/kg (Mus musculus [21]): 37%; inhibition in vivo at 100 mg/kg (Mus musculus [22]): 70%; pKa [23]: 9
NC(CNc1nc(-c2ccncc2)cc2cnccc12)Cc1ccccc1 (stereo not given) | > 1000 nM | 818 nM | 403 nM | 452 nM | > 1000 nM | 932 nM | –
CN(CCN)c1nc(-c2ccncc2)cc2cnccc12 | > 1000 nM | > 1000 nM | 24 nM | 34 nM | 350 nM | 371 nM | –
CNCCNc1nc(-c2ccncc2)cc2cnccc12 | > 1000 nM | > 1000 nM | 79 nM | 93 nM | 997 nM | 254 nM | –
c1cc(-c2cc3cnccc3c(N3CCCNCC3)n2)ccn1 | 661 nM | 433 nM | 7 nM | 4 nM | 77 nM | 63 nM | –
NC1CCCN(c2nc(-c3ccncc3)cc3cnccc23)C1 (stereo not given) | 865 nM | 771 nM | 8 nM | 13 nM | 132 nM | 214 nM | –
NCCCNc1nc(-c2ccncc2)cc2cnccc12 | 779 nM | 676 nM | 13 nM | 10 nM | 97 nM | 53 nM | –
OCCNc1nc(-c2ccncc2)cc2cnccc12 | > 1000 nM | > 1000 nM | 81 nM | 188 nM | 743 nM | 635 nM | –
O=C1CN(c2nc(-c3ccncc3)cc3cnccc23)CCN1 | > 1000 nM | > 1000 nM | 802 nM | 735 nM | > 1000 nM | > 1000 nM | –
CC(C)(N)CNc1nc(-c2cccnc2)cc2cnccc12 | > 1000 nM | > 1000 nM | > 1000 nM | > 1000 nM | > 1000 nM | > 1000 nM | –
CC(C)(N)CNc1nc(-c2ccnc(N)c2)cc2cnccc12 | > 1000 nM | 378 nM | 147 nM | 60 nM | 496 nM | 294 nM | –
CC(C)Nc1cc(-c2cc3cnccc3c(NCC(C)(C)N)n2)ccn1 | > 1000 nM | > 1000 nM | > 1000 nM | 862 nM | > 1000 nM | > 1000 nM | –
CC(C)(N)CNc1nc(-c2ccncc2F)cc2cnccc12 | 961 nM | > 1000 nM | 62 nM | 18 nM | 140 nM | 124 nM | –
CC(C)(N)CNc1nc(-c2ccncc2Cl)cc2cnccc12 | > 1000 nM | > 1000 nM | 47 nM | 15 nM | 93 nM | 221 nM | –
Cc1cnccc1-c1cc2cnccc2c(NCC(C)(C)N)n1 | > 1000 nM | > 1000 nM | 133 nM | 52 nM | 738 nM | 386 nM | –
